pIC50: −log10 of the molar value. Blank lines part the entries; values can stand above or below the molecule they belong to.
How the values were obtained:
[1] = tested on: plasma glutamate; conditions: neurosurgical patients, anesthesia; cited from earlier work
[2] = Exposure control (pharmacokinetics) in NOSTRA III patients; format: in vivo, human; conditions: TBI patients; for mean absolute concentration 12 hours after end of infusion / mean absolute concentration at the end of the infusion: Ronopterin 17 mg/kg infused for 48 hours
Protocol: An exposure control was performed with samples collected after end of infusion and 12 hours after end of infusion.

[3] = Plasma pharmacokinetics after single rectal administration of VAS203 gel in rabbits; format: in vivo
Protocol: In this Example, VAS203 was formulated as a gel at a concentration of 450 mg VAS203/ml for single rectal administration in rabbits. This formulation of VAS203 as a gel (450 mg/ml) was filled in 2 ml syringes pact in foil with an oxygen absorber.
Six rabbits were dosed with 1.5 ml of VAS203 gel (corresponding to a dosage of about 200 mg VAS203/kg body weight). Blood collection was carried out at pre-dose, 10 min, 20 min, 40 min, 1 h, 2 h, 3 h, 4 h, 5 h, 6 h, and 20-26 h after rectal administration. The whole blood samples (ca. 1-2 ml sufficient to obtain approx. 0.3 mL EDTA plasma/animal/sampling time), were collected into pre-cooled EDTA vials. To stabilise the blood samples, 1 mg Dithioerythritol (DTE) was added to approx. 1 mL blood. Within 15 minutes of blood collection the samples were centrifuged at 4° C. for 10 minutes. The plasma was transferred to vials and immediately frozen and stored at −80° C. for analysis.
The plasma concentrations (in μg/L) of VAS203, 7,8-Dihydroaminobiopterin (VAS3384, ABH2, the compound of formula (II) as shown in here) and Aminobiopterin (VAS3382, AB) were measured by liquid chromatography mass spectrometry (LC-MS).

[4] = molecular target: iNOS (Homo sapiens, UniProt P35228); assay: In vitro iNOS inhibition; format: biochemical
[5] = tested on: C57 BL/6 mice, controlled cortical impact (CCI) model; assay: Controlled cortical impact (CCI) model in mice, intracranial pressure (ICP); format: in vivo; conditions: for therapeutic activity of metabolites of VAS203: mouse, in vivo
Text: The primary objective of this experiment was the characterization of the intracranial pressure (ICP) reduction by VAS3384 in the controlled cortical impact (CCI) model in mice. The secondary objective was characterization of the neuroprotective effect (reduction of the lesion volume) of VAS3384 in the controlled cortical impact model in mice.
• Test compound A • Denomination: VAS 3384 • Active agent: 4-Amino-4-desoxy-7,8-dihydrobiopterin-dihydrochloride, obtained from Schircks Laboratories, Bauma, Switzerland • Detailed composition: VAS 3384 dissolved in sodium phosphate buffer (PBS) pH 7.4 • Formulation method: 15 mg of the test compound (VAS 3384) are dissolved in 500 μl PBS, pH 7.4. The solution is neutralized with 72 μl 1 N NaOH and filled up with 428 μl water (check pH). • Final concentration of active agent: 15 mg/ml • Appearance: yellow, clear solution • Storage (solid test compound): −20° C. • Dose applied: 560 mg/kg or 37.3 ml/kg • Way of administration: intravenous injection/infusion • Negative control • Denomination: sodium phosphate buffer (PBS) • Active agent: none • Detailed composition: Na2HPO4, NaH2PO4, 100 mM pH 7.4 • Formulation method: ready for use • Final concentration of active agent: not applicable • Appearance: colourless, clear solution • Expiration date: 3 months after preparation • Volume applied: 37.3 ml/kg • Way of administration: intravenous injection/infusion Experimental Procedure
The animals (C57 BL/6 mice), under Dormicum/Methidomidin/Fentanyl-narcosis were fixed in a stereo tactical frame and the scalp was opened with a cut along the median. The skull bone
was laid open and disinfected with H2O2. A hole of approx. 1.2 mm diameter was then drilled into the skull (Bregma 0.4-0.4 mm). The ICP-probe was introduced through this hole. The V. jugularis was be laid open and a catheter introduced. This catheter was introduced in the neck subcutaneously and fixed on the cap of the cage with a protective spiral of metal. This setup permitted an infusion in awake animals. The skull was opened above of the right cortex and mechanically traumatized (CCI model). The skullcap was then closed with the removed bone.
Mice 1-9: 10 minutes after the trauma the animals got an intravenous bolus injection of 20 mg/kg VAS 3384 (=1.33 ml/kg) followed by an infusion of 1.5 mg/kg/min (=100 μl/kg/min) VAS 3384 over six hours to maintain the dose. After six hours, after termination of the infusion, and after 24 hours the ICP of the animals was measured. After 24 hours the animals were sacrificed, the brains dissected and the lesion volume determined by Nissl's method.
Mice 10-18: 10 minutes after the trauma the animals received an intravenous bolus injection of 1.33 ml/kg PBS followed by an infusion of 100 μl/kg/min PBS over six hours. After six hours, after the termination of the infusion, and after 24 hours the ICP of the animals was measured.
At the end of the observation period animals were sacrificed by cervical dislocation in deep halothane anaesthesia. The brains were carefully removed, frozen in powdered dry ice, and stored at −20° C. until further use. Ten μm coronal sections were prepared every 500 μm on a cryostat (CryoStar HM 560, Microm, Walldorf, Germany) and stained with cresyl violet. Sections were photographed with a digital camera system. The contusion area, the area of the non-traumatized tissue of the ipsilateral hemisphere, and the area of the contralateral hemisphere were determined on the digitized images with a standard image analysis software (Optimate 6.51, Media Cybernetics, Silver Spring, MD, USA) by an investigator blinded to the treatment of the animals. In order to correct for the swelling of contused tissue, the contusion area was calculated by subtracting the area of the non-traumatized tissue of the ipsilateral hemisphere from the area of the contralateral hemisphere. […]

[6] = tested on: nitric oxide synthase (NOS) / spinal NR2B-containing NMDA receptors; conditions: rats, cited from earlier work
[7] = tested on: blood glutamate levels; conditions: rat; cited from earlier work
[8] = rabbits, single rectal VAS203 gel, about 200 mg/kg

SMILES: FC(F)OC(Cl)C(F)(F)F (stereo not drawn) [Isoflurane]
plasma glutamate [1]: significantly increase

elimination 12 hours after end of infusion [2]: 56%
mean absolute concentration 12 hours after end of infusion [2]: 476 ng/mL
mean absolute concentration at the end of the infusion [2]: 1071 ng/mL
half-life ([3]; rabbit, in vivo, 200 mg/kg): ~1.33 h
pIC50 [4]: 4.92
potency to inhibit the i-NOS in comparison to VAS203 [4]: about ten times less potency
SMILES: CC(O)C(O)C1=Nc2c(N)nc(N)nc2NC1 [VAS3384, 4-Amino-(6R,S)-7,8-dihydro-L-biopterin]
ICP after 6 hours ([5]; CCI mice, i.v. infusion of 560 mg/kg over 6 h, mean +/- SD, n=9/group, placebo 14.1+/−1.8, p=0.0005): 10.4+/−1.9
ICP after 24 hours ([5]; CCI mice, i.v. infusion of 560 mg/kg over 6 h, placebo 10.7+/−2.3, non-significant): 10.3+/−1.7
reduction of the increased ICP compared with the placebo group ([5]; infusion of 560 mg/kg for six hours, starting 10 minutes after CCI): significantly reduction of the increased ICP
therapeutic activity of metabolites of VAS203 [5]: still active

SMILES: COC(=O)[C@@H](N)CCCNC(=N)N[N+](=O)[O-] [L-NAME]
oxaliplatin-induced pain behavior [6]: significantly suppressed

SMILES: N[C@@H](Cc1cc(I)c(Oc2cc(I)c(O)c(I)c2)c(I)c1)C(=O)O [L-thyroxine]
blood glutamate levels [7]: increased

mean absolute concentration 12 hours after end of infusion [2]: 37 ng/mL
mean absolute concentration at the end of the infusion [2]: 52 ng/mL
elimination half-life [3, 8]: approximately 4 hours
time to reach plateau of plasma concentration [3, 8]: approx. 50 minutes
SMILES: C[C@H](O)[C@@H](O)c1cnc2nc(N)nc(N)c2n1 [aminobiopterin, Aminobiopterin]
therapeutic activity of metabolites of VAS203 [5]: no therapeutic activity

SMILES: CC(C)c1cccc(C(C)C)c1O [propofol]
plasma glutamate [1]: significantly increase

SMILES: C[C@@H](CN1CCC(Cc2ccccc2)CC1)[C@@H](O)c1ccc(O)cc1 [Ro25-6981]
oxaliplatin-increased intensity of NADPH diaphorase staining in the superficial layer of spinal dorsal horn ([6]; intrathecal injection): reversed

SMILES: O=[N+]([O-])c1cccc2cn[nH]c12 [7-nitroindazole]
oxaliplatin-induced pain behavior [6]: significantly suppressed

Source: patent US12465609B2, “Methods of treating patients suffering from a disease condition or disorder that is associated with an increased glutamate level” (veriNOS operations GmbH, priority 2022, dated 2025)
